Assay results: patent US9421179B2, “Acamprosate formulations, methods of using the same, and combinations comprising the same” (Synchroneuron Inc., priority 2011, dated 2016)
“Also recorded” adds a separate entry of the source.

Assays:
[1] = Gastric retention time of swellable acamprosate tablet in dog model (fed mode induction with alpha-lipoic acid); assay type: in vivo; details: retention of 800 mg swellable tablet; After 125 mg alpha-lipoic acid given 15 minutes before; four beagle dogs
[2] = system: abnormal chewing movements produced in rats by haloperidol; test: Rat model of tardive dyskinesia (haloperidol-induced abnormal chewing movements); assay type: in vivo; details: steadily-maintained blood level; rats exposed several weeks to haloperidol
Method: Acamprosate is tested using a rat model of tardive dyskinesia looking at abnormal chewing movements produced in rats by exposing them for several weeks to haloperidol, a potent first-generation neuroleptic. […]

[3] = cited from earlier work
[4] = system: cultured rat hippocampus neurons; test: Organotypic hippocampal slice model of glutamate neurotoxicity after acamprosate pre-treatment; assay type: cell-based; details: 200 μM calcium acamprosate for 8 hr or 5 days; removed for up to eight hours; challenge NMDA 50 uM or mGluR agonist
Method: The study is designed to test whether pre-treatment with acamprosate can have long-term neuronal protective effects against glutamate neurotoxicity. The study uses an in vitro organotypic hippocampal slice model. The study assesses whether less than 24 hours per day of exposure to a sufficient level of acamprosate can offer 24-hour therapeutic actions in neuropsychiatric disorders. […] This supports, among other things, the therapeutic use of acamprosate in neuropsychiatric disorders because the latter are related to the effect of acamprosate to decrease glutamate effects at NMDA and metabotropic glutamate receptors.
Hippocampal slices derived from 8-day-old Sprague Dawley rats are plated and subsequently exposed to a relatively acute (8 hour) or more chronic (5 day) acamprosate treatment. […] The slices are then placed in normal medium with propidium iodide for 24 hr and assessed for neurotoxicity/neuroprotection as described below. […]
For the final medium change, the plates are moved into normal media containing propidium iodide (PI) added to each well for 24 hours. PI only penetrates cell membranes of damaged or potentially dying cells, binding to DNA to produce a bright, intensified red fluorescence at 630 nm. […] Fluorescence is recorded in arbitrary units, then converted to percent of control, facilitating comparison across multiple cultures and controlling for variation between litters.

[5] = system: Per2(Brdm1) deletion or ENT1(-/-) mice; test: Transgenic mouse models with movement disorders and hyperglutamatergic states; assay type: in vivo; details: steadily-maintained blood level
[6] = cited from earlier work; remark: listed apart in the source
tardive dyskinesia = test: Clinical cases: acamprosate treatment of tardive dyskinesia; assay type: in vivo, human
Method: Case 1: A person had long-standing tardive dyskinesia induced by treatment of schizoaffective disorder with a variety of neuroleptics and mood stabilizers. Their TD was characterized by side to side movements of the jaw, grimacing movements, rocking of the trunk, and continual involuntary kicking, leg-crossing, and twisting movements of their legs and feet. At the time they presented for treatment of their TD they were treated for their mental illness with lamotrigine and quetiapine, a second-generation neuroleptic.
After additional weeks free of TD symptoms they discontinued the acamprosate. Their TD symptoms returned, as did feelings of anxiety and agitation that had not been present while they were on the combination of acamprosate and perphenazine.
To test the hypothesis that the efficacy of acamprosate was related to adequate time above a threshold blood level the patient was asked to try taking 1332 mg of acamprosate once a day.
CASE 2: A person had been treated with acamprosate for several years for TD due to exposure to several neuroleptics for schizoaffective disorder. They were currently treated with lamotrigine and quetiapine for their mental illness, and was taking acamprosate 1032 mg+999 mg+1032 mg on a three times daily basis. […] To test the therapeutic threshold hypothesis the patient was asked to try 1032 mg of acamprosate once a day in the morning.

SMILES	Average gastric retention time [1] [h]	Maximum gastric retention time [1] [h]	Minimum gastric retention time [1] [h]	abnormal chewing movements [2]	solubility [3]	solubility in gastric juice ([3]; gastric juice)	effect on post-synaptic effects of glutamate agonists after removal of acamprosate from the culture medium [4]	abnormal movements [5]	decrease of bioavailability by food [6]	relief of TD symptoms (tardive dyskinesia; Case 1, 666 mg three times a day)	relief of TD symptoms (tardive dyskinesia; Case 1, 999 mg three times a day)	anxiety and agitation (tardive dyskinesia; Case 1, 999 mg three times a day, with perphenazine)	relief of TD symptoms (tardive dyskinesia; Case 1, 1332 mg once a day)	side effects (tardive dyskinesia; Case 1, 1332 mg once a day)	relief of involuntary movements of TD (tardive dyskinesia; Case 2, 999 mg three times a day)	relief of involuntary movements of TD (tardive dyskinesia; Case 2, 1032 mg in the morning plus second dose of 1032 mg 8 to 10 hours later)	relief of involuntary movements of TD (tardive dyskinesia; Case 2, 1032 mg once a day in the morning)	relief of involuntary movements of TD (tardive dyskinesia; Case 2, 1032 mg+999 mg+1032 mg three times daily)	anxiety and agitation (tardive dyskinesia; Case 2, when involuntary movements were relieved, with lamotrigine and quetiapine)
O=C(O)CCCCC1CCSS1 (stereo not drawn) [alpha-lipoic acid]	2.8	5	1.5																
CC(=O)NCCCS(=O)(=O)O [acamprosate, calcium N-acetylhomotaurinate]				reduce or eliminate the abnormal movements	high solubility	immediately and completely soluble in gastric juice	persistent effect	reduce or eliminate the abnormal movements	approximately 30%	partial relief of symptoms; also recorded: did not give their complete relief	complete relief of their TD	relief of anxiety and agitation	free of involuntary movements of TD	significant GI side effects of diarrhea and abdominal cramps	did not give full relief from their involuntary movements	complete relief of symptoms	free of movements in the morning and early afternoon but movements returned in the evening	completely relieved their involuntary movements of TD	less anxiety and agitation
